# ChEMBL document CHEMBL4346705, “(±)-trans-Dihydronarciclasine and (±)-trans-dihydrolycoricidine analogues modified in their ring A: Evaluation of their anticancer activity and a SAR study” (2019)
# Assays:
# Type in all cases: functional
# NCI-H23 = test: Antiproliferative activity against human NCI-H23 cells assessed as cell viability at 10^-5 M incubated for 48 hrs by sulforhodamine B assay relative to control; conditions: NCI-H23, 48 h, read-out: Activity
# 786-0 = test: Antiproliferative activity against human 786-0 cells assessed as cell viability at 10^-5 M incubated for 48 hrs by sulforhodamine B assay relative to control; conditions: 786-0, 48 h, read-out: Activity
# RXF 393 = test: Antiproliferative activity against human RXF393 cells assessed as cell viability at 10^-5 M incubated for 48 hrs by sulforhodamine B assay relative to control; conditions: RXF 393, 48 h, read-out: Activity
# OVCAR-5 = test: Antiproliferative activity against human OVCAR5 cells assessed as cell viability at 10^-5 M incubated for 48 hrs by sulforhodamine B assay relative to control; conditions: OVCAR-5, 48 h, read-out: Activity
# MDA-MB-231 = test: Antiproliferative activity against human MDA-MB-231 cells assessed as cell viability at 10^-5 M incubated for 48 hrs by sulforhodamine B assay relative to control; conditions: MDA-MB-231, 48 h, read-out: Activity
# HCT-15 = test: Antiproliferative activity against human HCT15 cells assessed as cell viability at 10^-5 M incubated for 48 hrs by sulforhodamine B assay relative to control; conditions: HCT-15, 48 h, read-out: Activity
# U-251 = test: Antiproliferative activity against human U251 cells assessed as cell viability at 10^-5 M incubated for 48 hrs by sulforhodamine B assay relative to control; conditions: U-251, 48 h, read-out: Activity
# A549 = test: Antiproliferative activity against human A549 cells assessed as cell viability at 10^-5 M incubated for 48 hrs by sulforhodamine B assay relative to control; conditions: A549, 48 h, read-out: Activity
# K562 = test: Antiproliferative activity against human K562 cells assessed as cell viability at 10^-5 M incubated for 48 hrs by sulforhodamine B assay relative to control; conditions: K562, 48 h, read-out: Activity
# HOP-92 = test: Antiproliferative activity against human HOP92 cells assessed as cell viability at 10^-5 M incubated for 48 hrs by sulforhodamine B assay relative to control; conditions: HOP-92, 48 h, read-out: Activity
# OVCAR-4 = test: Antiproliferative activity against human OVCAR4 cells assessed as cell viability at 10^-5 M incubated for 48 hrs by sulforhodamine B assay relative to control; conditions: OVCAR-4, 48 h, read-out: Activity
# SK-MEL-28 = test: Antiproliferative activity against human SK-MEL-28 cells assessed as cell viability at 10^-5 M incubated for 48 hrs by sulforhodamine B assay relative to control; conditions: SK-MEL-28, 48 h, read-out: Activity
# UACC-62 = test: Antiproliferative activity against human UACC62 cells assessed as cell viability at 10^-5 M incubated for 48 hrs by sulforhodamine B assay relative to control; conditions: UACC-62, 48 h, read-out: Activity
# A498 = test: Antiproliferative activity against human A498 cells assessed as cell viability at 10^-5 M incubated for 48 hrs by sulforhodamine B assay relative to control; conditions: A498, 48 h, read-out: Activity
# BT-549 = test: Antiproliferative activity against human BT549 cells assessed as cell viability at 10^-5 M incubated for 48 hrs by sulforhodamine B assay relative to control; conditions: BT-549, 48 h, read-out: Activity
# Malme-3M = test: Antiproliferative activity against human MALME-3M cells assessed as cell viability at 10^-5 M incubated for 48 hrs by sulforhodamine B assay relative to control; conditions: read-out: Activity
# UACC-257 = test: Antiproliferative activity against human UACC257 cells assessed as cell viability at 10^-5 M incubated for 48 hrs by sulforhodamine B assay relative to control; conditions: UACC-257, 48 h, read-out: Activity
# HT-29 = test: Antiproliferative activity against human HT-29 cells assessed as cell viability at 10^-5 M incubated for 48 hrs by sulforhodamine B assay relative to control; conditions: HT-29, 48 h, read-out: Activity
# SK-OV-3 = test: Antiproliferative activity against human SKOV3 cells assessed as cell viability at 10^-5 M incubated for 48 hrs by sulforhodamine B assay relative to control; conditions: SK-OV-3, 48 h, read-out: Activity
# CAKI-1 = test: Antiproliferative activity against human Caki1 cells assessed as cell viability at 10^-5 M incubated for 48 hrs by sulforhodamine B assay relative to control; conditions: CAKI-1, 48 h, read-out: Activity
# NCI-H460 = test: Antiproliferative activity against human NCI-H460 cells assessed as cell viability at 10^-5 M incubated for 48 hrs by sulforhodamine B assay relative to control; conditions: NCI-H460, 48 h, read-out: Activity
# MDA-MB-468 = test: Antiproliferative activity against human MDA-MB-468 cells assessed as cell viability at 10^-5 M incubated for 48 hrs by sulforhodamine B assay relative to control; conditions: MDA-MB-468, 48 h, read-out: Activity
# SK-MEL-5 = test: Antiproliferative activity against human SK-MEL-5 cells assessed as cell viability at 10^-5 M incubated for 48 hrs by sulforhodamine B assay relative to control; conditions: SK-MEL-5, 48 h, read-out: Activity
# HCT-116 = test: Antiproliferative activity against human HCT116 cells assessed as cell viability at 10^-5 M incubated for 48 hrs by sulforhodamine B assay relative to control; conditions: HCT-116, 48 h, read-out: Activity
# SNB-19 = test: Antiproliferative activity against human SNB19 cells assessed as cell viability at 10^-5 M incubated for 48 hrs by sulforhodamine B assay relative to control; conditions: SNB-19, 48 h, read-out: Activity
# LOX IMVI = test: Antiproliferative activity against human LOXIMVI cells assessed as cell viability at 10^-5 M incubated for 48 hrs by sulforhodamine B assay relative to control; conditions: read-out: Activity
# COLO 205 = test: Antiproliferative activity against human COLO205 cells assessed as cell viability at 10^-5 M incubated for 48 hrs by sulforhodamine B assay relative to control; conditions: COLO 205, 48 h, read-out: Activity
SMILES,viability at 10 µM (NCI-H23) [%],viability at 10 µM (786-0) [%],viability at 10 µM (RXF 393) [%],viability at 10 µM (OVCAR-5) [%],viability at 10 µM (MDA-MB-231) [%],viability at 10 µM (HCT-15) [%],viability at 10 µM (U-251) [%],viability at 10 µM (A549) [%],viability at 10 µM (K562) [%],viability at 10 µM (HOP-92) [%],viability at 10 µM (OVCAR-4) [%],viability at 10 µM (UACC-62) [%],viability at 10 µM (A498) [%],viability at 10 µM (BT-549) [%],viability at 10 µM (Malme-3M) [%],viability at 10 µM (UACC-257) [%],viability at 10 µM (HT-29) [%],viability at 10 µM (SK-OV-3) [%],viability at 10 µM (CAKI-1) [%],viability at 10 µM (NCI-H460) [%],further results
COc1cc2c(c3c1OCCO3)C(=O)NC1C2CC(O)C(O)C1O (racemic),102,95.6,106,103,103,102,100,93.7,106,77.7,108,99.3,100,98.3,103,97.5,102,104,93.4,106,viability at 10 µM (SK-MEL-28): 106%; viability at 10 µM (MDA-MB-468): 99.5%; viability at 10 µM (SK-MEL-5): 101%; viability at 10 µM (HCT-116): 99.6%; viability at 10 µM (SNB-19): 100%; viability at 10 µM (LOX IMVI): 101%; viability at 10 µM (COLO 205): 111%
CCCOc1cc2c(cc1OCC)C1CC(O)C(O)C(O)C1NC2=O (racemic),108,101,109,105,118,112,98.5,107,105,110,107,117,115,97.1,108,104,107,109,95.9,107,viability at 10 µM (MDA-MB-468): 112%; viability at 10 µM (SK-MEL-5): 100%; viability at 10 µM (HCT-116): 101%; viability at 10 µM (SNB-19): 105%; viability at 10 µM (LOX IMVI): 96.7%; viability at 10 µM (COLO 205): 110%
COc1c2c(cc3c1C(=O)NC1C3CC(O)C(O)C1O)OCCO2 (racemic),104,97.4,102,105,109,102,100,96.5,95.6,91.6,105,96.7,104,99.5,106,98.8,106,98.6,94,109,viability at 10 µM (SK-MEL-28): 106%; viability at 10 µM (MDA-MB-468): 93.1%; viability at 10 µM (SK-MEL-5): 99%; viability at 10 µM (HCT-116): 102%; viability at 10 µM (SNB-19): 102%; viability at 10 µM (LOX IMVI): 101%; viability at 10 µM (COLO 205): 103%
O=C1NC2C(CC(O)C(O)C2O)c2cc3c(cc21)OCCO3 (racemic),107,102,116,107,109,103,101,109,104,101,107,103,108,98.3,105,107,105,103,94.4,107,viability at 10 µM (MDA-MB-468): 107%; viability at 10 µM (SK-MEL-5): 102%; viability at 10 µM (HCT-116): 95.5%; viability at 10 µM (SNB-19): 102%; viability at 10 µM (LOX IMVI): 97.8%; viability at 10 µM (COLO 205): 111%
